Results published in patent US20230248834A1, “DEGRADATION OF (EGFR) BY CONJUGATION OF EGFR INHIBITORS WITH E3 LIGASE LIGAND AND METHODS OF USE” (BEIGENE, LTD., priority 2020, published 2023).

Columns and labels:
EGFR L858R/C797S = biological target: T1, EGFR L858R/C797S (Homo sapiens, UniProt P00533, C797S/L858R); assay: EGFR degradation HTRF assay in BaF3 LC cells; type: cell-based; settings: BaF3 LC (L858R/C797S), maximum percentage of inhibition (degradation); read-out: BaF3 LC Dmax (%)
T1 construct: expressed in transfected cells; host or cells: BaF3 LC
T1 sequence (P00533 25-1210 C797S/L858R): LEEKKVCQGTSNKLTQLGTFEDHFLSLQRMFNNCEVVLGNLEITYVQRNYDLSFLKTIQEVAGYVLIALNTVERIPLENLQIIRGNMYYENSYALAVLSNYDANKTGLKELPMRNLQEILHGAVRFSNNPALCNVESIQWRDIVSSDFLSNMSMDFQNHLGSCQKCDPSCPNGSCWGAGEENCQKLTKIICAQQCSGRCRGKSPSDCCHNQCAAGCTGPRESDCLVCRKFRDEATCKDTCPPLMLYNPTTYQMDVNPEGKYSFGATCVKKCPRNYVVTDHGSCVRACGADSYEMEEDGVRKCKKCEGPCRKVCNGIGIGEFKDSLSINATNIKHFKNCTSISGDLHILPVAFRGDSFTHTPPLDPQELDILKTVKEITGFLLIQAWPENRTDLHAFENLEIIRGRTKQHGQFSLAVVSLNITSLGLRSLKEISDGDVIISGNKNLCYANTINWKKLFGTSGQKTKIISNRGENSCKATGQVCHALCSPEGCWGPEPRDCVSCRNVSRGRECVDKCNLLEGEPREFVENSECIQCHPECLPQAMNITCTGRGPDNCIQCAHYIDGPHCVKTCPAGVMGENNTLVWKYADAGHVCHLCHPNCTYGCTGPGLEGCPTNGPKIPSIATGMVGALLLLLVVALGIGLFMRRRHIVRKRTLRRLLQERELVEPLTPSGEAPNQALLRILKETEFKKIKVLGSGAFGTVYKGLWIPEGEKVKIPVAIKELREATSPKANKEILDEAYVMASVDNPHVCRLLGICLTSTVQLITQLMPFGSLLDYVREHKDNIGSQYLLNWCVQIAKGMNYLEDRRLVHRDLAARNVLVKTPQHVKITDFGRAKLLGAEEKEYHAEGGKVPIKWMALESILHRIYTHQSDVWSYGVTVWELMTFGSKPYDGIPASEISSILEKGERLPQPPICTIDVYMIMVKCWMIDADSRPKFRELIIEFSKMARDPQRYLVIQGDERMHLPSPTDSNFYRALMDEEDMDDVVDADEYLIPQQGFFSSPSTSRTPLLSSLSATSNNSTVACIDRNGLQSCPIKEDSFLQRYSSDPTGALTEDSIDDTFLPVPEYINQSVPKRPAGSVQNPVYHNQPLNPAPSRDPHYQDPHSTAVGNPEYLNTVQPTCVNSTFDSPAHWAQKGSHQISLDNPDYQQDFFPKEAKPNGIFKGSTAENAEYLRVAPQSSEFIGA
Protocol: BaF3-LTC(L858R/T790M/C797S) cells and BaF3 LC(L858R/C797S) cells are treated with compounds diluted in 0.2% DMSO cell culture medium and incubate for 16 h, 37° C., 5% CO2. the final concentration of compounds in all assay is start with 10 uM, 5-fold dilution, total 8 doses were included.
After 16 h treatment, add HTRF lysis buffer to each well; seal the plate and incubate 1 hour at room temperature on a plate shaker; Once the cells are lysed, 16 μL of cell lysate are transferred to a PE 384-well HTRF detection plate; 4 μL of pre-mixed HTRF antibodies are added to each well; Cover the plate with a plate sealer, spin 1000 rpm for 1 min, Incubate overnight at room temperature; Read on BMG PheraStar with HTRF protocol (337 nm-665 nm-620 nm).
The inhibition (degradation) percentage of the compound was calculated by the following equation: Inhibition percentage of Compound=100−100×(Signal−low control)/(High control−low control), wherein signal=each test compound group
High control=Cell group with added DMSO and without compound, indicating microplate readings without EGFR degradation;
Dmax is the maximum percentage of inhibition (degradation).
The IC50 (DC50) value of a compound can be obtained by fitting the following equation
Y=Bottom+(TOP−Bottom)/(1+((IC50/X)^hillslope))
Wherein, X and Y are known values, and IC50, Hillslope, Top and Bottom are the parameters obtained by fitting with software. Y is the inhibition percentage (calculated from the equation), X is the concentration of the compound; IC50 is the concentration of the compound when the 50% inhibition is reached. The smaller the IC50 value is, the stronger the inhibitory ability of the compound is. Vice versa, the higher the IC50 value is, the weaker the inhibitory ability of the compound is; Hillslope represents the slope of the fitted curve, generally around 1*; Bottom represents the minimum value of the curve obtained by data fitting, which is generally 0%±20%; Top represents the maximum value of the curve obtained by data fitting, which is generally 100%±20%. The experimental data were fitted by calculating and analyzing with Dotmatics data analysis software.

EGFR L858R/T790M/C797S = biological target: T2, EGFR L858R/T790M/C797S (Homo sapiens, UniProt P00533, C797S/L858R/T790M); assay: EGFR degradation HTRF assay in BaF3-LTC cells; type: cell-based; settings: BaF3-LTC (L858R/T790M/C797S), maximum percentage of inhibition (degradation); read-out: BaF3-LTC Dmax (%)
T2 construct: expressed in transfected cells; host or cells: BaF3-LTC
T2 sequence (P00533 25-1210 T790M/C797S/L858R): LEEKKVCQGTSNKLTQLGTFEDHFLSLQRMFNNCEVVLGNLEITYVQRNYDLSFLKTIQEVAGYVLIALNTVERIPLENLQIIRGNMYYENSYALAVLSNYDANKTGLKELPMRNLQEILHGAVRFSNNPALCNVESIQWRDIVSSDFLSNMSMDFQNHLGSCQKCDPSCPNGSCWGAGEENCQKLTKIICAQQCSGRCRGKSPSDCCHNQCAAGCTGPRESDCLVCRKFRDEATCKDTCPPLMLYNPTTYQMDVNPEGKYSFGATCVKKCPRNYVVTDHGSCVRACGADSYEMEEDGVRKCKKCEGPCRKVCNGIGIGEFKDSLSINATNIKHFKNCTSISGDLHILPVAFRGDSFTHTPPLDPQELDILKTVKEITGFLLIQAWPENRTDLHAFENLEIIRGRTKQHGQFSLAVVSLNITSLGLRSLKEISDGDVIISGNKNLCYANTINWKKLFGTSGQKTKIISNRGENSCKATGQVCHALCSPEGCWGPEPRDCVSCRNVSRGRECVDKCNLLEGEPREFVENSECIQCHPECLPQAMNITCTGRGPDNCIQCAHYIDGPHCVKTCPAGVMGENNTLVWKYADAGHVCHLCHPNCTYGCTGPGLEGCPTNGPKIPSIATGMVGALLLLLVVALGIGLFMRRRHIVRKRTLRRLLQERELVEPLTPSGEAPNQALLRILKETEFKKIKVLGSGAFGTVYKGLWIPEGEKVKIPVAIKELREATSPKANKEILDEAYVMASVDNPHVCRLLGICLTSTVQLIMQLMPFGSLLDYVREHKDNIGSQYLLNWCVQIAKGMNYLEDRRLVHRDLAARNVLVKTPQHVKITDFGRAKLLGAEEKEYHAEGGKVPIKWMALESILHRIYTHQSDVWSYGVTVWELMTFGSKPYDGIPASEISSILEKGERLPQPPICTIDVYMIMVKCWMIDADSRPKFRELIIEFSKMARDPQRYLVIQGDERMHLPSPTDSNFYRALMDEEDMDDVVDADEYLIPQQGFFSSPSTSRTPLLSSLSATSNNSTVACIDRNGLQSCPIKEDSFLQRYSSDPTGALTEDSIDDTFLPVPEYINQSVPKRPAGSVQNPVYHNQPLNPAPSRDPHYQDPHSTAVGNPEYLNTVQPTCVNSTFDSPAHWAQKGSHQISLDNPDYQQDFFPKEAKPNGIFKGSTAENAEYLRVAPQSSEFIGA
Procedure, shortened: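 BaF3 cells expressing EGFR L858R/C797S or L858R/T790M/C797S treated 16 h at 37 °C with compounds (top 10 uM, 5-fold, 8 doses; 0.2% DMSO). Remaining EGFR quantified by HTRF in lysates after overnight antibody incubation. Degradation percentage versus DMSO controls; DC50 from four-parameter fit, Dmax as maximal degradation.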

| Dmax (EGFR L858R/C797S) [%] | Dmax (EGFR L858R/T790M/C797S) [%] | SMILES |
| --- | --- | --- |
| 92.8 | 95.6 | CCc1ccc2c(P(C)(C)=O)c(Nc3nc(Nc4cc(C)c(N5CCC(N6CCN(CCc7cccc8c7n(C)c(=O)n8C7CCC(=O)NC7=O)CC6)CC5)cc4OC4CC4)ncc3Br)ccc2n1 (centres unmarked) [Example 584, 3-(4-(2-(4-(1-(4-((5-bromo-4-((5-(dimethylphosphoryl)-2-ethylquinolin-6-yl)amino)pyrimidin-2-yl)amino)-5-cyclopropoxy-2-methylphenyl)piperidin-4-yl)piperazin-1-yl)ethyl)-3-methyl-2-oxo-2,3-dihydro-1H-benzo[d]imidazol-1-yl)piperidine-2,6-dione] |
| 94 | 94.7 | CCOc1cc(N2CCC(N3CCN(CCc4cccc5c4n(C)c(=O)n5C4CCC(=O)NC4=O)CC3)CC2)c(CC)cc1Nc1ncc(Br)c(Nc2ccc3nc(CC)ccc3c2P(C)(C)=O)n1 (centres unmarked) [Example 752, 3-(4-(2-(4-(1-(4-((5-bromo-4-((5-(dimethylphosphoryl)-2-ethylquinolin-6-yl)amino)pyrimidin-2-yl)amino)-5-ethoxy-2-ethylphenyl)piperidin-4-yl)piperazin-1-yl)ethyl)-3-methyl-2-oxo-2,3-dihydro-1H-benzo[d]imidazol-1-yl)piperidine-2,6-dione] |
| 95.6 | 98 | CCc1cc(Nc2ncc(Br)c(Nc3ccc4nc(C)ccc4c3P(C)(C)=O)n2)c(OC)cc1N1CCC(N2CCN(C(=O)[C@H]3CN(c4cc(F)c([C@H]5CCC(=O)NC5=O)c(F)c4)CC3(C)C)CC2)CC1 [Example 487, (R)-3-(4-((R)-4-(4-(1-(4-((5-bromo-4-((5-(dimethylphosphoryl)-2-methylquinolin-6-yl)amino)pyrimidin-2-yl)amino)-2-ethyl-5-methoxyphenyl)piperidin-4-yl)piperazine-1-carbonyl)-3,3-dimethylpyrrolidin-1-yl)-2,6-difluorophenyl)piperidine-2,6-dione] |
| 87.2 | 90.4 | CCc1ncc2c(P(C)(C)=O)c(Nc3nc(Nc4cc(CC)c(N5CCC(N6CCN(C(=O)[C@@H]7CCN(c8cc(F)c([C@H]9CCC(=O)NC9=O)c(F)c8)C7)CC6)CC5)cc4OC)ncc3Br)ccc2n1 [Example 549, (R)-3-(4-((R)-3-(4-(1-(4-((5-bromo-4-((5-(dimethylphosphoryl)-2-ethylquinazolin-6-yl)amino)pyrimidin-2-yl)amino)-2-ethyl-5-methoxyphenyl)piperidin-4-yl)piperazine-1-carbonyl)pyrrolidin-1-yl)-2,6-difluorophenyl)piperidine-2,6-dione] |
| 86 | 89 | CCOc1cc(N2CCC(N3CCN(CCc4cccc5c4n(CC)c(=O)n5C4CCC(=O)NC4=O)CC3)CC2)c(CC)cc1Nc1ncc(Br)c(Nc2ccc3nc(CC)ccc3c2P(C)(C)=O)n1 (centres unmarked) [Example 504, 3-(4-(2-(4-(1-(4-((5-bromo-4-((5-(dimethylphosphoryl)-2-ethylquinolin-6-yl)amino)pyrimidin-2-yl)amino)-5-ethoxy-2-ethylphenyl)piperidin-4-yl)piperazin-1-yl)ethyl)-3-ethyl-2-oxo-2,3-dihydro-1H-benzo[d]imidazol-1-yl)piperidine-2,6-dione] |
| 94.7 | 92.7 | CCc1ccc2c(P(C)(C)=O)c(Nc3nc(Nc4cc(CC)c(N5CCC(N6CCN(CCc7ccc8c(c7)oc(=O)n8C7CCC(=O)NC7=O)CC6)CC5)cc4OC)ncc3Br)ccc2n1 (centres unmarked) [Example 491, 3-(6-(2-(4-(1-(4-((5-bromo-4-((5-(dimethylphosphoryl)-2-ethylquinolin-6-yl)amino)pyrimidin-2-yl)amino)-2-ethyl-5-methoxyphenyl)piperidin-4-yl)piperazin-1-yl)ethyl)-2-oxobenzo[d]oxazol-3(2H)-yl)piperidine-2,6-dione] |
| 87.1 | 95.2 | CCOc1cc(N2CCC(N3CCN(CCc4cccc5c4oc(=O)n5C4CCC(=O)NC4=O)CC3)CC2)c(CC)cc1Nc1ncc(Br)c(Nc2cc(F)c3nc(CC)ccc3c2P(C)(C)=O)n1 (centres unmarked) [Example 493, 3-(7-(2-(4-(1-(4-((5-bromo-4-((5-(dimethylphosphoryl)-2-ethyl-8-fluoroquinolin-6-yl)amino)pyrimidin-2-yl)amino)-5-ethoxy-2-ethylphenyl)piperidin-4-yl)piperazin-1-yl)ethyl)-2-oxobenzo[d]oxazol-3(2H)-yl)piperidine-2,6-dione] |
| 93.5 | 83.5 | CCOc1cc(N2CCC(N3CCN(CCc4cccc5c4C(C)(C)C(=O)N5C4CCC(=O)NC4=O)CC3)CC2)c(CC)cc1Nc1ncc(Br)c(Nc2ccc3c(=O)n(CC)ncc3c2P(C)(C)=O)n1 (centres unmarked) [Example 501, 3-(4-(2-(4-(1-(4-((5-bromo-4-((5-(dimethylphosphoryl)-2-ethyl-1-oxo-1,2-dihydrophthalazin-6-yl)amino)pyrimidin-2-yl)amino)-5-ethoxy-2-ethylphenyl)piperidin-4-yl)piperazin-1-yl)ethyl)-3,3-dimethyl-2-oxoindolin-1-yl)piperidine-2,6-dione] |
| 87.3 | 96.3 | CCc1ccc2c(P(C)(C)=O)c(Nc3nc(Nc4cc(CC)c(N5CCC(N6CCN(C(=O)[C@H]7CN(c8cc(F)c([C@H]9CCC(=O)NC9=O)c(F)c8)CC7(C)C)CC6)CC5)cc4OC)ncc3Br)ccc2n1 [Example 754, (R)-3-(4-((R)-4-(4-(1-(4-((5-bromo-4-((5-(dimethylphosphoryl)-2-ethylquinolin-6-yl)amino)pyrimidin-2-yl)amino)-2-ethyl-5-methoxyphenyl)piperidin-4-yl)piperazine-1-carbonyl)-3,3-dimethylpyrrolidin-1-yl)-2,6-difluorophenyl)piperidine-2,6-dione] |
| 89.1 | 88.6 | CCOc1cc(N2CCC(N3CCN(C(=O)[C@@H]4CCN(c5cc(F)c([C@H]6CCC(=O)NC6=O)c(F)c5)C4)CC3)CC2)c(CC)cc1Nc1ncc(Br)c(Nc2ccc3nc(C)c(F)cc3c2P(C)(C)=O)n1 [Example 577, (R)-3-(4-((R)-3-(4-(1-(4-((5-bromo-4-((5-(dimethylphosphoryl)-3-fluoro-2-methylquinolin-6-yl)amino)pyrimidin-2-yl)amino)-5-ethoxy-2-ethylphenyl)piperidin-4-yl)piperazine-1-carbonyl)pyrrolidin-1-yl)-2,6-difluorophenyl)piperidine-2,6-dione] |
| 88.9 | 93.2 | CCc1cc(Nc2ncc(Br)c(Nc3ccc4c(=O)n(CC)ncc4c3P(C)(C)=O)n2)c(OC)cc1N1CCC(N2CCN(CCc3cc(F)c([C@H]4CCC(=O)NC4=O)c(F)c3)CC2)CC1 [Example 753, (R)-3-(4-(2-(4-(1-(4-((5-bromo-4-((5-(dimethylphosphoryl)-2-ethyl-1-oxo-1,2-dihydrophthalazin-6-yl)amino)pyrimidin-2-yl)amino)-2-ethyl-5-methoxyphenyl)piperidin-4-yl)piperazin-1-yl)ethyl)-2,6-difluorophenyl)piperidine-2,6-dione] |
| 88.3 | 88.5 | CCc1ccc2c(P(C)(C)=O)c(Nc3nc(Nc4cc(CC)c(N5CCC(N6CCN(CCc7cc(F)c(C8CCC(=O)NC8=O)c(F)c7)CC6)CC5)cc4OC)ncc3Br)ccc2n1 (centres unmarked) [Example 485, 3-(4-(2-(4-(1-(4-((5-bromo-4-((5-(dimethylphosphoryl)-2-ethylquinolin-6-yl)amino)pyrimidin-2-yl)amino)-2-ethyl-5-methoxyphenyl)piperidin-4-yl)piperazin-1-yl)ethyl)-2,6-difluorophenyl)piperidine-2,6-dione] |
| 87.7 | 93.2 | CCOc1cc(N2CCC(N3CCN(CCc4cccc5c4C4(CC4)C(=O)N5C4CCC(=O)NC4=O)CC3)CC2)c(CC)cc1Nc1ncc(Br)c(Nc2ccc3nc(CC)ccc3c2P(C)(C)=O)n1 (centres unmarked) [Example 571, 3-(4′-(2-(4-(1-(4-((5-bromo-4-((5-(dimethylphosphoryl)-2-ethylquinolin-6-yl)amino)pyrimidin-2-yl)amino)-5-ethoxy-2-ethylphenyl)piperidin-4-yl)piperazin-1-yl)ethyl)-2′-oxospiro[cyclopropane-1,3′-indolin]-1′-yl)piperidine-2,6-dione] |
